Assay results reported in US11331369B2, “Endoparasitic depsipeptides” (Zoetis Services LLC, priority 2017, dated 2022).

Key:
[1] = system: microfilariae of Dirofilaria immitis; test: Dirofilaria immitis, Microfilaria (DiMF) In vitro Assay; format: cell-based; settings: 72 h, read-out: DiMF Minimum Effective Dose (MED), approximately 72 hours incubation, microfilariae assessed for survival or paralysis
[2] = system: third stage larvae of Haemonchus contortus; test: Haemonchus contortus L3 (HcL3) Assay; format: cell-based; settings: 96 h, read-out: HcL3 Minimum Effective Dose (MED)

Row | SMILES | minimal effective concentration [1] [µM] | minimal effective concentration [2] [µM]
1 | CCOCc1nccn1Cc1ccc(C[C@H]2OC(=O)[C@H](CC(C)C)N(C)C(=O)[C@@H](C)OC(=O)[C@H](CC(C)C)N(C)C(=O)[C@@H](Cc3ccc(Cn4ccnc4COCC)cc3)OC(=O)[C@H](CC(C)C)N(C)C(=O)[C@@H](C)OC(=O)[C@H](CC(C)C)N(C)C2=O)cc1 [Example 6-20, (3S,6R,9S,12R,15S,18R,21S,24R)-6,18-bis(4-((2-(ethoxymethyl)-1H-imidazol-1-yl)methyl)benzyl)-3,9,15,21-tetraisobutyl-4,10,12,16,22,24-hexamethyl-1,7,13,19-tetraoxa-4,10,16,22-tetraazacyclotetracosan-2,5,8,11,14,17,20,23-octaone] | 0.001 to 0.01 | 1 to 10
2 | Cc1cc(C)n(Cc2ccc(C[C@H]3OC(=O)[C@H](CC(C)C)N(C)C(=O)[C@@H](C)OC(=O)[C@H](CC(C)C)N(C)C(=O)[C@@H](Cc4ccc(Cn5nc(C)cc5C)cc4)OC(=O)[C@H](CC(C)C)N(C)C(=O)[C@@H](C)OC(=O)[C@H](CC(C)C)N(C)C3=O)cc2)n1 [Example 1b-29, (3S,6R,9S,12R,15S,18R,21S,24R)-6,18-bis[[4-[(3,5-dimethylpyrazol-1-yl)methyl]phenyl]methyl]-3,9,15,21-tetraisobutyl-4,10,12,16,22,24-hexamethyl-1,7,13,19-tetraoxa-4,10,16,22-tetrazacyclotetracosane-2,5,8,11,14,17,20,23-octaone] | 0.001 to 0.01 | 1 to 10
3 | COc1cnn(Cc2ccc(C[C@H]3OC(=O)[C@H](CC(C)C)N(C)C(=O)[C@@H](C)OC(=O)[C@H](CC(C)C)N(C)C(=O)[C@@H](Cc4ccc(Cn5cc(OC)cn5)cc4)OC(=O)[C@H](CC(C)C)N(C)C(=O)[C@@H](C)OC(=O)[C@H](CC(C)C)N(C)C3=O)cc2)c1 [Example 1b-52, (3S,6R,9S,12R,15S,18R,21S,24R)-3,9,15,21-tetraisobutyl-6,18-bis(4-((4-methoxy-1H-pyrazol-1-yl)methyl)benzyl)-4,10,12,16,22,24-hexamethyl-1,7,13,19-tetraoxa-4,10,16,22-tetraazacyclotetracosan-2,5,8,11,14,17,20,23-octaone] | 0.001 to 0.01 | 1 to 10
4 | Cc1cnn(Cc2ccc(C[C@H]3OC(=O)[C@H](CC(C)C)N(C)C(=O)[C@@H](C)OC(=O)[C@H](CC(C)C)N(C)C(=O)[C@@H](Cc4ccc(Cn5cc(C)cn5)cc4)OC(=O)[C@H](CC(C)C)N(C)C(=O)[C@@H](C)OC(=O)[C@H](CC(C)C)N(C)C3=O)cc2)c1 [Example 1b-24, (3S,6R,9S,12R,15S,18R,21S,24R)-3,9,15,21-tetraisobutyl-4,6,10,16,18,22-hexamethyl-12,24-bis[[4-[(4-methylpyrazol-1-yl)methyl]phenyl]methyl]-1,7,13,19-tetraoxa-4,10,16,22-tetrazacyclotetracosane-2,5,8,11,14,17,20,23-octaone] | 0.001 to 0.01 | 1 to 10
5 | CC(C)C[C@H]1C(=O)O[C@H](Cc2ccc(Cn3cc(-c4ccncn4)cn3)cc2)C(=O)N(C)[C@@H](CC(C)C)C(=O)O[C@H](C)C(=O)N(C)[C@@H](CC(C)C)C(=O)O[C@H](Cc2ccccc2)C(=O)N(C)[C@@H](CC(C)C)C(=O)O[C@H](C)C(=O)N1C [Example 2-45, (3S,6R,9S,12R,15S,18R,21S,24R)-6-benzyl-3,9,15,21-tetraisobutyl-4,10,12,16,22,24-hexamethyl-18-(4-((4-(pyrimidin-4-yl)-1H-pyrazol-1-yl)methyl)benzyl)-1,7,13,19-tetraoxa-4,10,16,22-tetraazacyclotetracosan-2,5,8,11,14,17,20,23-octaone] | 0.001 to 0.01 | 1 to 10
6 | CC(C)C[C@H]1C(=O)O[C@H](Cc2ccc(Cn3ccccc3=O)cc2)C(=O)N(C)[C@@H](CC(C)C)C(=O)O[C@H](C)C(=O)N(C)[C@@H](CC(C)C)C(=O)O[C@H](Cc2ccc(Cn3ccccc3=O)cc2)C(=O)N(C)[C@@H](CC(C)C)C(=O)O[C@H](C)C(=O)N1C [Example 9-28, (3S,6R,9S,12R,15S,18R,21S,24R)-3,9,15,21-tetraisobutyl-4,6,10,16,18,22-hexamethyl-12,24-bis(4-((2-oxopyridin-1 (2H)-yl)methyl)benzyl)-1,7,13,19-tetraoxa-4,10,16,22-tetraazacyclotetracosan-2,5,8,11,14,17,20,23-octaone] | 0.001 to 0.01 | 1 to 10
7 | CC(C)C[C@H]1C(=O)O[C@H](Cc2ccc(Cn3cc(CO)cn3)cc2)C(=O)N(C)[C@@H](CC(C)C)C(=O)O[C@H](C)C(=O)N(C)[C@@H](CC(C)C)C(=O)O[C@H](Cc2ccccc2)C(=O)N(C)[C@@H](CC(C)C)C(=O)O[C@H](C)C(=O)N1C [Example 2-19, (3S,6R,9S,12R,15S,18R,21S,24R)-6-benzyl-18-(4-((4-(hydroxymethyl)-1H-pyrazol-1-yl)methyl)benzyl)-3,9,15,21-tetraisobutyl-4,10,12,16,22,24-hexamethyl-1,7,13,19-tetraoxa-4,10,16,22-tetraazacyclotetracosan-2,5,8,11,14,17,20,23-octaone] | 0.001 to 0.01 | 1 to 10
8 | CC(C)C[C@H]1C(=O)O[C@H](Cc2ccc(Cn3ccnc3C3CC3)cc2)C(=O)N(C)[C@@H](CC(C)C)C(=O)O[C@H](C)C(=O)N(C)[C@@H](CC(C)C)C(=O)O[C@H](Cc2ccc(Cn3ccnc3C3CC3)cc2)C(=O)N(C)[C@@H](CC(C)C)C(=O)O[C@H](C)C(=O)N1C [Example 6-7, (3S,6R,9S,12R,15S,18R,21S,24R)-6,18-bis[[4-[(2-cyclopropylimidazol-1-yl)methyl]phenyl]methyl]-3,9,15,21-tetraisobutyl-4,10,12,16,22,24-hexamethyl-1,7,13,19-tetraoxa-4,10,16,22-tetrazacyclotetracosane-2,5,8,11,14,17,20,23-octaone] | 0.01 to 0.1 | 1 to 10
9 | CC(C)C[C@H]1C(=O)O[C@H](C)C(=O)N(C)[C@@H](CC(C)C)C(=O)O[C@H](Cc2ccccc2)C(=O)N(C)[C@@H](CC(C)C)C(=O)O[C@H](C)C(=O)N(C)[C@@H](CC(C)C)C(=O)O[C@@H](Cc2ccc(CN3CCC(F)(F)CC3)cc2)C(=O)N1C [Example 10-3, (3S,6R,9S,12R,15S,18S,21S,24R)-6-benzyl-18-(4-((4,4-difluoropiperidin-1-yl)methyl)benzyl)-3,9,15,21-tetraisobutyl-4,10,12,16,22,24-hexamethyl-1,7,13,19-tetraoxa-4,10,16,22-tetraazacyclotetracosan-2,5,8,11,14,17,20,23-octaone] | 0.01 to 0.1 | 1 to 10
10 | Cc1nn(Cc2ccc(C[C@H]3OC(=O)[C@H](CC(C)C)N(C)C(=O)[C@@H](C)OC(=O)[C@H](CC(C)C)N(C)C(=O)[C@@H](Cc4ccc(Cn5nc(C)c(F)c5C)cc4)OC(=O)[C@H](CC(C)C)N(C)C(=O)[C@@H](C)OC(=O)[C@H](CC(C)C)N(C)C3=O)cc2)c(C)c1F [Example 1b-110, (3S,6R,9S,12R,15S,18R,21S,24R)-6,18-bis(4-((4-fluoro-3,5-dimethyl-1H-pyrazol-1-yl)methyl)benzyl)-3,9,15,21-tetraisobutyl-4,10,12,16,22,24-hexamethyl-1,7,13,19-tetraoxa-4,10,16,22-tetraazacyclotetracosan-2,5,8,11,14,17,20,23-octaone] | 0.01 to 0.1 | 1 to 10
11 | CC(C)C[C@H]1C(=O)O[C@H](Cc2ccc(Cn3ccnc3C(C)C)cc2)C(=O)N(C)[C@@H](CC(C)C)C(=O)O[C@H](C)C(=O)N(C)[C@@H](CC(C)C)C(=O)O[C@H](Cc2ccccc2)C(=O)N(C)[C@@H](CC(C)C)C(=O)O[C@H](C)C(=O)N1C [Example 8-8, (3S,6R,9S,12R,15S,18R,21S,24R)-6-benzyl-3,9,15,21-tetraisobutyl-18-(4-((2-isopropyl-1H-imidazol-1-yl)methyl)benzyl)-4,10,12,16,22,24-hexamethyl-1,7,13,19-tetraoxa-4,10,16,22-tetraazacyclotetracosan-2,5,8,11,14,17,20,23-octaone] | 0.001 to 0.01 | 1 to 10
12 | CC(C)C[C@H]1C(=O)O[C@H](Cc2ccc(Cn3nccc3C(C)(C)C)cc2)C(=O)N(C)[C@@H](CC(C)C)C(=O)O[C@H](C)C(=O)N(C)[C@@H](CC(C)C)C(=O)O[C@H](Cc2ccccc2)C(=O)N(C)[C@@H](CC(C)C)C(=O)O[C@H](C)C(=O)N1C [Example 2-68, (3S,6R,9S,12R,15S,18R,21S,24R)-6-benzyl-18-(4-((5-(tert-butyl)-1H-pyrazol-1-yl)methyl)benzyl)-3,9,15,21-tetraisobutyl-4,10,12,16,22,24-hexamethyl-1,7,13,19-tetraoxa-4,10,16,22-tetraazacyclotetracosan-2,5,8,11,14,17,20,23-octaone] | 0.01 to 0.1 | 1 to 10
13 | CC(C)C[C@H]1C(=O)O[C@H](Cc2ccc(Cn3ccnn3)cc2)C(=O)N(C)[C@@H](CC(C)C)C(=O)O[C@H](C)C(=O)N(C)[C@@H](CC(C)C)C(=O)O[C@H](Cc2ccc(Cn3ccnn3)cc2)C(=O)N(C)[C@@H](CC(C)C)C(=O)O[C@H](C)C(=O)N1C [Example 9-6, (3S,6R,9S,12R,15S,18R,21S,24R)-6,18-bis(4-((1H-1,2,3-triazol-1-yl)methyl)benzyl)-3,9,15,21-tetraisobutyl-4,10,12,16,22,24-hexamethyl-1,7,13,19-tetraoxa-4,10,16,22-tetraazacyclotetracosan-2,5,8,11,14,17,20,23-octaone] | 0.001 to 0.01 | 1 to 10
14 | CC(C)C[C@H]1C(=O)O[C@H](Cc2ccc(CN3CCOCC3)cc2)C(=O)N(C)[C@@H](CC(C)C)C(=O)O[C@H](C)C(=O)N(C)[C@@H](CC(C)C)C(=O)O[C@H](Cc2ccc(CN3CCOCC3)cc2)C(=O)N(C)[C@@H](CC(C)C)C(=O)O[C@H](C)C(=O)N1C [Example 9-1, (3S,6R,9S,12R,15S,18R,21S,24R)-3,9,15,21-tetraisobutyl-4,6,10,16,18,22-hexamethyl-12,24-bis(4-(morpholinomethyl)benzyl)-1,7,13,19-tetraoxa-4,10,16,22-tetraazacyclotetracosan-2,5,8,11,14,17,20,23-octaone] |  | 1 to 10
